In ChEMBL document CHEMBL5665443, “Enzyme Inhibitor Single Concentration assay results for EUbOPEN Chemogenomics Library” (2024) one finds inhibition data, which are given here for eleven molecules.

What all share (conditions): Compound Concentration 10.0 uM, Hit No
Test [1] addresses G/T mismatch-specific thymine DNA glycosylase (Homo sapiens) (UniProt Q13569).
Description: Inhibition of TDG by quantifying inhibition of TDG-mediated cleavage and dissociation of quenched duplex DNA oligonucleotides, measured as fluorescence at 594 nm. To generate a functional strand incision and increase turn-over this assay is coupled to APE1.
Test [2] has as its target DNA-3-methyladenine glycosylase (Homo sapiens) (UniProt P29372).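 Note: enzyme assay where MPG cuts a quenched duplex DNA oligonucleotide probe, paired with APE1 for strand incision and turnover, read as fluorescence at 594 nm.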
Description: Inhibition of MPG by quantifying inhibition of MPG-mediated cleavage and dissociation of quenched duplex DNA oligonucleotides, measured as fluorescence at 594 nm. To generate a functional strand incision and increase turn-over this assay is coupled to APE1.
The target of test [3] is Uracil-DNA glycosylase (Homo sapiens) (UniProt P13051).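 Note: UNG excision on a quenched double-stranded DNA oligo probe, with APE1 added for strand incision and turnover, read as fluorescence at 594 nm as strands separate.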
Description: Inhibition of UNG by quantifying inhibition of UNG-mediated cleavage and dissociation of quenched duplex DNA oligonucleotides, measured as fluorescence at 594 nm. To generate a functional strand incision and increase turn-over this assay is coupled to APE1.
Test [4] deals with T1, Endonuclease III-like protein 1 (Homo sapiens) (UniProt P78549).
T1 sequence (whole entry): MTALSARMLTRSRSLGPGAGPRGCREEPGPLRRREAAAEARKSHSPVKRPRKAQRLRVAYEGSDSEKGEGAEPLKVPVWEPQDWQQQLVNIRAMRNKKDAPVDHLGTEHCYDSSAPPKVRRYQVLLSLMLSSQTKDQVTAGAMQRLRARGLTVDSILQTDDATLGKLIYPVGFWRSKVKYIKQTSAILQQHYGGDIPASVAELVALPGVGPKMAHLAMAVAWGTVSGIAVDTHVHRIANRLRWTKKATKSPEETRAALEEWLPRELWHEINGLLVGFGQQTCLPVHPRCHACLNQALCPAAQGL
Description: Inhibition of NTHL1 by quantifying inhibition of NTHL1-mediated cleavage and dissociation of quenched duplex DNA oligonucleotides, measured as fluorescence at 594 nm.

The target in test [5] is Methyl-CpG-binding domain protein 4 (Homo sapiens) (UniProt O95243).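 Note: MBD4 activity read as fluorescence at 594 nm from cleavage and release of a quenched duplex DNA oligonucleotide, with APE1 coupled to incise the strand and raise turnover.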
Description: Inhibition of MBD4 by quantifying inhibition of MBD4-mediated cleavage and dissociation of quenched duplex DNA oligonucleotides, measured as fluorescence at 594 nm. To generate a functional strand incision and increase turn-over this assay is coupled to APE1.
In test [6] the target is T2, Endonuclease 8-like 2 (Homo sapiens) (UniProt Q969S2).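 Note: fluorescence at 594 nm reports NEIL2 cutting and release of a quenched double-stranded DNA oligo substrate, reduced signal read as inhibition.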
T2 sequence (whole entry): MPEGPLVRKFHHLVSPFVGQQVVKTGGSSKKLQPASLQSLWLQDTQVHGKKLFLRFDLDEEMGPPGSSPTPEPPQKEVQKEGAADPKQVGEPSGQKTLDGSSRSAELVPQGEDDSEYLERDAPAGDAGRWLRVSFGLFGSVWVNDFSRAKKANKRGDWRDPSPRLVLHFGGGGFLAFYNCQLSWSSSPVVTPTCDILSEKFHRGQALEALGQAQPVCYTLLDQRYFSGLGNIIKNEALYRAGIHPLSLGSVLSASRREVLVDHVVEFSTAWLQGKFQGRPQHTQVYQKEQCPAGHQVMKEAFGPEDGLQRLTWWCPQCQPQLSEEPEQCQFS
Description: Inhibition of NEIL2 by quantifying inhibition of NEIL2-mediated cleavage and dissociation of quenched duplex DNA oligonucleotides, measured as fluorescence at 594 nm.

The target of test [7] is T3, Single-strand selective monofunctional uracil DNA glycosylase (Homo sapiens) (UniProt Q53HV7).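 Note: enzymatic SMUG1 assay coupled with APE1, reading fluorescence at 594 nm released when a quenched double-stranded DNA oligonucleotide substrate is cleaved and separated.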
T3 sequence (whole entry): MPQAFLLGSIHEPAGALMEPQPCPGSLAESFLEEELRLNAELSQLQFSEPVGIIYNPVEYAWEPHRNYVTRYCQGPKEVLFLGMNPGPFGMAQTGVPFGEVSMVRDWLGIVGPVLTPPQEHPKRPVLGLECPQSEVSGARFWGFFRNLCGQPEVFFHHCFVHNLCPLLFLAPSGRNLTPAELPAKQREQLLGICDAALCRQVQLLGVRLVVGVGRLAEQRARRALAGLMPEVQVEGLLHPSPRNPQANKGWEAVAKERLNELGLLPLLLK
Description: Inhibition of SMUG1 by quantifying inhibition of SMUG1-mediated cleavage and dissociation of quenched duplex DNA oligonucleotides, measured as fluorescence at 594 nm. To generate a functional strand incision and increase turn-over this assay is coupled to APE1.

In test [8] the target is Endonuclease 8-like 1 (Homo sapiens) (UniProt Q96FI4).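 Note: fluorescence at 594 nm from quenched duplex DNA oligonucleotides released by NEIL1 cleavage and strand separation, reported as reduction of this enzyme activity.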
Description: Inhibition of NEIL1 by quantifying inhibition of NEIL1-mediated cleavage and dissociation of quenched duplex DNA oligonucleotides, measured as fluorescence at 594 nm.
In test [9] the target is N-glycosylase/DNA lyase (Homo sapiens) (UniProt O15527).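 Note: OGG1 cleavage of a quenched duplex DNA oligonucleotide, coupled to APE1 for strand incision, read as fluorescence at 594 nm.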
Chain of N-glycosylase/DNA lyase (Homo sapiens) (O15527 whole entry): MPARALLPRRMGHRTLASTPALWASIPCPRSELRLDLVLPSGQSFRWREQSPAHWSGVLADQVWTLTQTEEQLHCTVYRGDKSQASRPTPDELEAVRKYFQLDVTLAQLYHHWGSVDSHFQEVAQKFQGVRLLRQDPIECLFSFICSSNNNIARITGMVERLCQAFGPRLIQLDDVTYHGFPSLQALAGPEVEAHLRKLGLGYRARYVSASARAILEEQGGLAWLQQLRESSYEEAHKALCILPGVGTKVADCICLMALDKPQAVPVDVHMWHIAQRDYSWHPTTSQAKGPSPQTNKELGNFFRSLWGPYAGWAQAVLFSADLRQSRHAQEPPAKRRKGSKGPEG
Description: Inhibition of OGG1 by quantifying inhibition of OGG1-mediated cleavage and dissociation of quenched duplex DNA oligonucleotides, measured as fluorescence at 594 nm. To generate a functional strand incision and increase turn-over this assay is coupled to APE1.

Chain of Methyl-CpG-binding domain protein 4 (Homo sapiens) (O95243 whole entry, the tested form may be a part): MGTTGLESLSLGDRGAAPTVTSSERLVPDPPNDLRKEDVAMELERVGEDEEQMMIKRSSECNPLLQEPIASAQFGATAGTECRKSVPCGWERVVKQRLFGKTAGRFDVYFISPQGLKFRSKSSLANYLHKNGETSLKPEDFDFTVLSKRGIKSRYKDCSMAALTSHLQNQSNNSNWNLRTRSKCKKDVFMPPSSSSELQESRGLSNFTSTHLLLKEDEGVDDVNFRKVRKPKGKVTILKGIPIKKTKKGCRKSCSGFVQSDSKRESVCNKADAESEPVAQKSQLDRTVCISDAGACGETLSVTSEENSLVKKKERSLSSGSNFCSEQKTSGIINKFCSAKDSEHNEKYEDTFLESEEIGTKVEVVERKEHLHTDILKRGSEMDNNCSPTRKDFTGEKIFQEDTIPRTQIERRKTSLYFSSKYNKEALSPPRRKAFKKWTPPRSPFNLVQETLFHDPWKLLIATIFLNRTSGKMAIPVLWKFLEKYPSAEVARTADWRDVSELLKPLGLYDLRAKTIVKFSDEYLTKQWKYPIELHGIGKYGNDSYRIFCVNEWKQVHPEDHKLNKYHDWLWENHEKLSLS
Chain of DNA-3-methyladenine glycosylase (Homo sapiens) (P29372 whole entry): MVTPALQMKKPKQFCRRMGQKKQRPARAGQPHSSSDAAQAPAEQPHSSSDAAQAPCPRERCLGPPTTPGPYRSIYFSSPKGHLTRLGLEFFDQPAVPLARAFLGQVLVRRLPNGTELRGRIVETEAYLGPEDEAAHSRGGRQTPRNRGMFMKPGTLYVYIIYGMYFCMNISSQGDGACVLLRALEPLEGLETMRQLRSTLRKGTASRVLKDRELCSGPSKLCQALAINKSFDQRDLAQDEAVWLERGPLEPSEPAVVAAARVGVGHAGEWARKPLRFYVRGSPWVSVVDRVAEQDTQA
Chain of Endonuclease 8-like 1 (Homo sapiens) (Q96FI4 whole entry): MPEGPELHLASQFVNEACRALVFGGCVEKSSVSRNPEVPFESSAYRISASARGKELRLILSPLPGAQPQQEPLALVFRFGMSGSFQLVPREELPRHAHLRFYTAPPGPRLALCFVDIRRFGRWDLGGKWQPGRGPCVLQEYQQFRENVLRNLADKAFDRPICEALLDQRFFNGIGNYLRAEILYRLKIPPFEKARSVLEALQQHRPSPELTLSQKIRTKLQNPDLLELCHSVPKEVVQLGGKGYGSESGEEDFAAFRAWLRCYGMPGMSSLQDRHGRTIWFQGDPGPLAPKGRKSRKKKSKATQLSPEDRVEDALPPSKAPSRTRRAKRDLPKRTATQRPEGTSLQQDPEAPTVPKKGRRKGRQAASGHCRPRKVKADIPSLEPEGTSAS
Chain of G/T mismatch-specific thymine DNA glycosylase (Homo sapiens) (Q13569 whole entry): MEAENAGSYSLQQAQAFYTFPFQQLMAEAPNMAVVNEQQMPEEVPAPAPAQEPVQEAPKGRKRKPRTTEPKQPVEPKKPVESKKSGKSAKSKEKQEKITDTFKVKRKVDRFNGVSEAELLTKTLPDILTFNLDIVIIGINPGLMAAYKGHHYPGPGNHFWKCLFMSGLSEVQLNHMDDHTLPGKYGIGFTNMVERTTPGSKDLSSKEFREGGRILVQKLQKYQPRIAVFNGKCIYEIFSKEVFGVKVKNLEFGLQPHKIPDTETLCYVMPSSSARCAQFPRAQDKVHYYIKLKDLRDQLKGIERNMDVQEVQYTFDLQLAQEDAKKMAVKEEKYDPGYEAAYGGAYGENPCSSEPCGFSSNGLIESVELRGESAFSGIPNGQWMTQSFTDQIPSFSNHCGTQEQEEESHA
Chain of Uracil-DNA glycosylase (Homo sapiens) (P13051 whole entry): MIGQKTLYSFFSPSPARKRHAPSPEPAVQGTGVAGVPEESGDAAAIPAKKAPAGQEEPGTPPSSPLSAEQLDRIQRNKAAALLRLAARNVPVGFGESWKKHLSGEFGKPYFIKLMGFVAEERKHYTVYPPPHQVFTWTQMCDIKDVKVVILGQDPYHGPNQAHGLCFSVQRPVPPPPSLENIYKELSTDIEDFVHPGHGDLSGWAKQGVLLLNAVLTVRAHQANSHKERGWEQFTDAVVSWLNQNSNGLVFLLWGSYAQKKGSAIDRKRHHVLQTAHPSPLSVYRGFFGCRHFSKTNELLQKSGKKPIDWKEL

As to `C[C@H](N)Cn1ccc2cc(F)c(Cl)cc21`, the inhibition – broadly, the drop in the measured response relative to a control, in per cent – was -0.256% in test [1]; -5.64% in [2]; -6.21% in test [3]; 6.35% in test [4]; 4.93% in [5].

Take `Cc1cc(-c2nncc3c(C(C)(C)C)c(OCc4ncnn4C)nn23)no1`: the inhibition in test [6] is -4.17%; in test [1], -4.49%; in test [2] it was -9.01%; in [3] it was -3.18%; in test [7], -0.184%; in test [4] it was 1.39%. Moreover, the inhibition in test [8] was -1.32%; in test [5], -4.07%.

Consider `Cc1cc(NC(=O)Nc2ccccc2)n(-c2ccccc2)n1`, for which the inhibition in test [6] was 7.29%; in test [1], 5.78%; in [2], 3.86%; in [3] it was 1.74%; in test [7], 0.777%; in test [4], 10.5%. In addition, the values for the inhibition in test [8] and in test [5] were 1.64% and 0.993%, respectively.

Take `c1nc(CC2CCNCC2)c[nH]1`: the inhibition in test [6] was -0.983%; in test [1], 10.2%; in test [9] it was -4.12%; in test [2] it was -7.11%; in test [4], 7.05%; in test [8] it was 7.21%. For the same molecule, the inhibition in [5] is -3.22%.

On to `O=C(NCc1cccnc1OCC(F)(F)F)c1cncc(-c2ccc(Cl)cc2)c1`, for which the inhibition is -0.35% in test [6]; 3.98% in [1]; 2% in test [2]; -5.85% in test [3]; -3.23% in test [7]; 0.568% in test [4]. The inhibition is -4.73% in [8] and -9.96% in test [5].

As for `COC1CCN(c2cccc(-c3cc(NC(C)=O)nc(-n4nc(C)cc4C)n3)n2)CC1`, the inhibition is 2.26% in test [6]; -3.39% in test [1]; -4.31% in [9]; 6.5% in test [2]; 12.2% in test [4]; -4.26% in test [5].

With `CCCN1CCO[C@H]2c3cc(O)ccc3OC[C@@H]21`, the inhibition in test [6] was -7.97%; in test [1], -3.98%; in test [9], -4.1%; in [2] it was 3.27%; in test [4] it was 7.05%; in test [8], 8.1%. Further, the inhibition in test [5] was -3.57%.

On to `O=C1NCCc2c(OCCCCN3CCCCC3)cccc21`, for which the inhibition was 3.98% in test [6]; -4.06% in test [1]; -7.4% in test [9]; -7.35% in test [2]; -4.57% in test [3]; 23.7% in test [4]. The inhibition in test [8] amounted to 5.05%; in test [5], 2.31%.

As to `COc1ccccc1-n1nc(C2CC(C)(C)OC(C)(C)C2)cc1-c1ccc(Cl)cc1`, the inhibition in test [6] is -4.68%; in test [1] it was -6.29%; in [2], -7.01%; in test [3], -3.03%; in [4], 12.1%; in test [8], 11.3%. The inhibition in [5] is -1.99%.

As to `CNc1nc(NCc2ccc(NS(C)(=O)=O)cc2Cl)cc(-c2ccccn2)n1`, the inhibition in [6] was 7.25%; in test [1] it was 18.1%; in test [9], 15%; in [2], -5.26%; in [3] it was -9.82%; in [7] it was 11.2%. Moreover, the inhibition in [4] is -9.07%; in [8] it was 3.5%.

In the case of `CC[C@@H](C[C@H]1COC(N)=N1)c1ccccc1`, the inhibition is -1.88% in [6]; 11.1% in test [1]; -5.21% in test [2]; -3.91% in [3]; 17.9% in [4]; 8.31% in [8]. In test [5], the inhibition is 4.05%.
